Reference: article PMC7441158 (Nature Communications, 2020)

How the values were obtained:
[1] = target: T1, VIP receptor 1 (VPAC1) (Homo sapiens, UniProt P32241); test: cAMP assay, COS-7 cells transiently expressing VPAC1; assay type: cell-based; settings: for EC50: log(EC50) VPAC1 + VIP, log10 of EC50, COS-7 cells, cAMP, Hill = 1, top constrained to 100%; for % receptor activation at 1µM agonist: VPAC1 + VIP, Suppl. fig 5a source data
T1 sequence (P32241 31-457): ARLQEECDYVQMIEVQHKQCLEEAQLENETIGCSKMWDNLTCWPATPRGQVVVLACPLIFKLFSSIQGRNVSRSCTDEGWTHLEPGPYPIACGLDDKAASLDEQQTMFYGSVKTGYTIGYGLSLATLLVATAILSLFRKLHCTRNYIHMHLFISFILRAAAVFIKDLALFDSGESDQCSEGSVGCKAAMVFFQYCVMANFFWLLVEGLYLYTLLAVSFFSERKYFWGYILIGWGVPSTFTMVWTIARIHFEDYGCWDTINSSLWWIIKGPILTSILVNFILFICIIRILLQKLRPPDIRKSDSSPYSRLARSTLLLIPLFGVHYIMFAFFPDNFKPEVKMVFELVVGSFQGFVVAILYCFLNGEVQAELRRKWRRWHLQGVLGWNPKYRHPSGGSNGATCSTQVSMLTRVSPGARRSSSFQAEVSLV

[2] = target: T2, VIP receptor 2 (VPAC2) (Homo sapiens, UniProt P41587); test: cAMP assay, COS-7 cells transiently expressing VPAC2; assay type: cell-based; settings: for % receptor activation at 1µM agonist: VPAC2 + VIP, Suppl. fig 5a source data; for EC50: log(EC50) VPAC 2 + VIP, log10 of EC50, COS-7 cells, cAMP, Hill = 1, top constrained to 100%
T2 sequence (P41587 24-438): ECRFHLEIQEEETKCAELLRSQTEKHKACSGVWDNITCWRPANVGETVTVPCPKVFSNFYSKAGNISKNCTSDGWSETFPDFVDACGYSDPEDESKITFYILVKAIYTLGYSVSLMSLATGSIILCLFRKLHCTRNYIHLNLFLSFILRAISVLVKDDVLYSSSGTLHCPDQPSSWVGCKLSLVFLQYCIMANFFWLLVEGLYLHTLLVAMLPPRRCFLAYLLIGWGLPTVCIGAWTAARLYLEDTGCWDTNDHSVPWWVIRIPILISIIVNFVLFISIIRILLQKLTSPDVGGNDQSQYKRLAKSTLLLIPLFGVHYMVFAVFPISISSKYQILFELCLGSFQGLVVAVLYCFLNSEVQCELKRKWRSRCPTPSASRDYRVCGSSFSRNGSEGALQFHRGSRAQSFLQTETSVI

[3] = system: neprilysin (NEP); test: NEP (R&D Systems) in 50 mM Tris, 0.05% Brij-35, pH 9.0; settings: 37 °C, up to 24 h
[4] = independent experiment 1, duplicate determinations
[5] = independent experiment 2, duplicate determinations
[6] = independent experiment 3, duplicate determinations

Compound: CC[C@H](C)[C@H](NC(=O)[C@H](CO)NC(=O)[C@H](CC(N)=O)NC(=O)[C@H](CC(C)C)NC(=O)[C@H](Cc1ccc(O)cc1)NC(=O)[C@H](CCCCN)NC(=O)[C@H](CCCCN)NC(=O)[C@@H](NC(=O)[C@H](C)NC(=O)[C@H](CCSC)NC(=O)[C@H](CCC(N)=O)NC(=O)[C@H](CCCCN)NC(=O)[C@H](CCCNC(=N)N)NC(=O)[C@H](CC(C)C)NC(=O)[C@H](CCCNC(=N)N)NC(=O)[C@@H](NC(=O)[C@H](Cc1ccc(O)cc1)NC(=O)[C@H](CC(N)=O)NC(=O)[C@H](CC(=O)O)NC(=O)[C@@H](NC(=O)[C@H](Cc1ccccc1)NC(=O)[C@@H](NC(=O)[C@H](C)NC(=O)[C@H](CC(=O)O)NC(=O)[C@H](CO)NC(=O)[C@@H](N)Cc1c[nH]cn1)C(C)C)[C@@H](C)O[C@H]1O[C@H](CO)[C@H](O)[C@H](O[C@@H]2O[C@H](CO)[C@H](O)[C@H](O[C@]3(C(=O)O)C[C@H](O)[C@@H](NC(C)=O)[C@H]([C@H](O)[C@H](O)CO)O3)[C@H]2O)[C@H]1NC(C)=O)[C@@H](C)O)C(C)C)C(=O)N[C@@H](CC(C)C)C(=O)N[C@@H](CC(N)=O)C(N)=O [VIP ST]
- EC50 [1, 4]: 34.1 nM
- EC50 [1, 5]: 116 nM
- EC50 [1, 6]: 162 nM
- Efficacy raw data for Glucagon-receptors, VPAC1 + VIP ([1]; replicate 1): 91.02
- Efficacy raw data for Glucagon-receptors, VPAC1 + VIP ([1]; replicate 2): 112.4
- Efficacy raw data for Glucagon-receptors, VPAC1 + VIP ([1]; replicate 3): 93.56
- % receptor activation at 1µM agonist ([2]; replicate 1): 68.0%
- % receptor activation at 1µM agonist ([2]; replicate 2): 68.9%
- % receptor activation at 1µM agonist ([2]; replicate 3): 66.1%
- % receptor activation at 1µM agonist ([2]; replicate 4): 69.7%
- % receptor activation at 1µM agonist ([2]; replicate 5): 54.2%
- % receptor activation at 1µM agonist ([2]; replicate 6): 49.2%
- EC50 [2, 4]: 378 nM
- EC50 [2, 5]: 596 nM
- EC50 [2, 6]: 946 nM
- Efficacy raw data for Glucagon-receptors, VPAC2 + VIP ([2]; replicate 1): 72.87
- Efficacy raw data for Glucagon-receptors, VPAC2 + VIP ([2]; replicate 3): 74.68

Compound: CC[C@H](C)[C@H](NC(=O)[C@H](CO)NC(=O)[C@H](CC(N)=O)NC(=O)[C@H](CC(C)C)NC(=O)[C@H](Cc1ccc(O)cc1)NC(=O)[C@H](CCCCN)NC(=O)[C@H](CCCCN)NC(=O)[C@@H](NC(=O)[C@H](C)NC(=O)[C@H](CCSC)NC(=O)[C@H](CCC(N)=O)NC(=O)[C@H](CCCCN)NC(=O)[C@H](CCCNC(=N)N)NC(=O)[C@H](CC(C)C)NC(=O)[C@H](CCCNC(=N)N)NC(=O)[C@@H](NC(=O)[C@H](Cc1ccc(O)cc1)NC(=O)[C@H](CC(N)=O)NC(=O)[C@H](CC(=O)O)NC(=O)[C@@H](NC(=O)[C@H](Cc1ccccc1)NC(=O)[C@@H](NC(=O)[C@H](C)NC(=O)[C@H](CC(=O)O)NC(=O)[C@H](CO)NC(=O)[C@@H](N)Cc1c[nH]cn1)C(C)C)[C@@H](C)O[C@H]1O[C@H](CO)[C@H](O)[C@H](O[C@@H]2O[C@H](CO)[C@H](O)[C@H](O)[C@H]2O)[C@H]1NC(C)=O)[C@@H](C)O)C(C)C)C(=O)N[C@@H](CC(C)C)C(=O)N[C@@H](CC(N)=O)C(N)=O [VIP T]
- % receptor activation at 1µM agonist ([1]; replicate 5): 104.2%
- EC50 [1, 4]: 18.9 nM
- EC50 [1, 5]: 88.7 nM
- EC50 [1, 6]: 45.8 nM
- Efficacy raw data for Glucagon-receptors, VPAC1 + VIP ([1]; replicate 1): 95.97
- Efficacy raw data for Glucagon-receptors, VPAC1 + VIP ([1]; replicate 2): 106.4
- Efficacy raw data for Glucagon-receptors, VPAC1 + VIP ([1]; replicate 3): 107.3
- % receptor activation at 1µM agonist ([2]; replicate 1): 72.7%
- % receptor activation at 1µM agonist ([2]; replicate 2): 72.4%
- % receptor activation at 1µM agonist ([2]; replicate 3): 74.8%
- % receptor activation at 1µM agonist ([2]; replicate 4): 68.0%
- % receptor activation at 1µM agonist ([2]; replicate 5): 58.9%
- % receptor activation at 1µM agonist ([2]; replicate 6): 52.3%
- EC50 [2, 4]: 202 nM
- EC50 [2, 5]: 422 nM
- EC50 [2, 6]: 718 nM
- Efficacy raw data for Glucagon-receptors, VPAC2 + VIP ([2]; replicate 1): 75.53
- Efficacy raw data for Glucagon-receptors, VPAC2 + VIP ([2]; replicate 2): 106.2
- Efficacy raw data for Glucagon-receptors, VPAC2 + VIP ([2]; replicate 3): 67.09

Compound: CC[C@H](C)[C@H](NC(=O)[C@H](CO)NC(=O)[C@H](CC(N)=O)NC(=O)[C@H](CC(C)C)NC(=O)[C@H](Cc1ccc(O)cc1)NC(=O)[C@H](CCCCN)NC(=O)[C@H](CCCCN)NC(=O)[C@@H](NC(=O)[C@H](C)NC(=O)[C@H](CCSC)NC(=O)[C@H](CCC(N)=O)NC(=O)[C@H](CCCCN)NC(=O)[C@H](CCCNC(=N)N)NC(=O)[C@H](CC(C)C)NC(=O)[C@H](CCCNC(=N)N)NC(=O)[C@@H](NC(=O)[C@H](Cc1ccc(O)cc1)NC(=O)[C@H](CC(N)=O)NC(=O)[C@H](CC(=O)O)NC(=O)[C@@H](NC(=O)[C@H](Cc1ccccc1)NC(=O)[C@@H](NC(=O)[C@H](C)NC(=O)[C@H](CC(=O)O)NC(=O)[C@H](CO)NC(=O)[C@@H](N)Cc1c[nH]cn1)C(C)C)[C@@H](C)O[C@H]1O[C@H](CO)[C@H](O)[C@H](O)[C@H]1NC(C)=O)[C@@H](C)O)C(C)C)C(=O)N[C@@H](CC(C)C)C(=O)N[C@@H](CC(N)=O)C(N)=O [VIP Tn]
- % receptor activation at 1µM agonist ([1]; replicate 4): 82.0%
- EC50 [1, 4]: 42.6 nM
- EC50 [1, 5]: 207 nM
- EC50 [1, 6]: 101 nM
- Efficacy raw data for Glucagon-receptors, VPAC1 + VIP ([1]; replicate 1): 102
- Efficacy raw data for Glucagon-receptors, VPAC1 + VIP ([1]; replicate 2): 111.1
- Efficacy raw data for Glucagon-receptors, VPAC1 + VIP ([1]; replicate 3): 105.8
- % receptor activation at 1µM agonist ([2]; replicate 1): 70.4%
- % receptor activation at 1µM agonist ([2]; replicate 2): 67.4%
- % receptor activation at 1µM agonist ([2]; replicate 3): 67.0%
- % receptor activation at 1µM agonist ([2]; replicate 4): 57.3%
- % receptor activation at 1µM agonist ([2]; replicate 5): 63.7%
- % receptor activation at 1µM agonist ([2]; replicate 6): 60.1%
- EC50 [2, 4]: 421 nM
- EC50 [2, 5]: 656 nM
- EC50 [2, 6]: 577 nM
- Efficacy raw data for Glucagon-receptors, VPAC2 + VIP ([2]; replicate 1): 74.75
- Efficacy raw data for Glucagon-receptors, VPAC2 + VIP ([2]; replicate 2): 186
- Efficacy raw data for Glucagon-receptors, VPAC2 + VIP ([2]; replicate 3): 78.02

Compound: CC[C@H](C)[C@H](NC(=O)[C@H](CO)NC(=O)[C@H](CC(N)=O)NC(=O)[C@H](CC(C)C)NC(=O)[C@H](Cc1ccc(O)cc1)NC(=O)[C@H](CCCCN)NC(=O)[C@H](CCCCN)NC(=O)[C@@H](NC(=O)[C@H](C)NC(=O)[C@H](CCSC)NC(=O)[C@H](CCC(N)=O)NC(=O)[C@H](CCCCN)NC(=O)[C@H](CCCNC(=N)N)NC(=O)[C@H](CC(C)C)NC(=O)[C@H](CCCNC(=N)N)NC(=O)[C@@H](NC(=O)[C@H](Cc1ccc(O)cc1)NC(=O)[C@H](CC(N)=O)NC(=O)[C@H](CC(=O)O)NC(=O)[C@@H](NC(=O)[C@H](Cc1ccccc1)NC(=O)[C@@H](NC(=O)[C@H](C)NC(=O)[C@H](CC(=O)O)NC(=O)[C@H](CO)NC(=O)[C@@H](N)Cc1c[nH]cn1)C(C)C)[C@@H](C)O)[C@@H](C)O)C(C)C)C(=O)N[C@@H](CC(C)C)C(=O)N[C@@H](CC(N)=O)C(N)=O [VIP non-glycosylated]
- % receptor activation at 1µM agonist ([2]; replicate 1): 79.5%
- % receptor activation at 1µM agonist ([2]; replicate 2): 82.6%
- % receptor activation at 1µM agonist ([2]; replicate 3): 101.8%
- % receptor activation at 1µM agonist ([2]; replicate 4): 110.5%
- % receptor activation at 1µM agonist ([2]; replicate 5): 97.7%
- % receptor activation at 1µM agonist ([2]; replicate 6): 107.3%

Compound: CC[C@H](C)[C@H](NC(=O)[C@H](CO)NC(=O)[C@H](CC(N)=O)NC(=O)[C@H](CC(C)C)NC(=O)[C@H](Cc1ccc(O)cc1)NC(=O)[C@H](CCCCN)NC(=O)[C@H](CCCCN)NC(=O)[C@@H](NC(=O)[C@H](C)NC(=O)[C@H](CCSC)NC(=O)[C@H](CCC(N)=O)NC(=O)[C@H](CCCCN)NC(=O)[C@H](CCCNC(=N)N)NC(=O)[C@H](CC(C)C)NC(=O)[C@H](CCCNC(=N)N)NC(=O)[C@@H](NC(=O)[C@H](Cc1ccc(O)cc1)NC(=O)[C@H](CC(N)=O)NC(=O)[C@H](CC(=O)O)NC(=O)[C@@H](NC(=O)[C@H](Cc1ccccc1)NC(=O)[C@@H](NC(=O)[C@H](C)NC(=O)[C@H](CC(=O)O)NC(=O)[C@H](CO)NC(=O)[C@@H](N)Cc1c[nH]cn1)C(C)C)[C@@H](C)O)[C@@H](C)O)C(C)C)C(=O)N[C@@H](CC(C)C)C(=O)N[C@@H](CC(N)=O)C(N)=O [VIP, vasoactive intestinal polypeptide, reference compound]
- Efficacy raw data for Glucagon-receptors, VPAC2 + VIP ([2]; replicate 1): 99.97
- Efficacy raw data for Glucagon-receptors, VPAC2 + VIP ([2]; replicate 2): 100
- Efficacy raw data for Glucagon-receptors, VPAC2 + VIP ([2]; replicate 3): 100

Compound: GWTLNSAGYLLGPHAVGNHRSFSDKNGLTS [Galanin T]
- not cleaved [3]: −: not susceptible to degradation
